For assay [1], the target named is T1, E. coli LRS (Escherichia coli, UniProt P07813).
T1 construct: made in house
In words: Leucine tRNA synthetase (LRS) enzyme inhibition assay. It is filed as biochemical. How it is done: (§1) (Test Example 1) Leucine tRNA Synthetase (LRS) Enzyme Inhibition Assay [IC50]
(§2) E. coli and P. aeruginosa LRS enzymes were cloned, expressed and purified in-house. The IC50 values were determined by using following assay protocol.
(§3) Test compounds were diluted in milli-Q water. 5 μL (microliter) of test compound dilution was mixed with 20 μL of reaction mixture consisting of 100 millimolar Tris (Trizma base from Sigma), 120 millimolar potassium chloride (Sigma), […] magnesium chloride (Sigma), 50 millimolar dithiothreitol, 50 mg/mL E. coli tRNA (Roche), 150 micromolar leucine (Sigma), 0.5 microcurie of ^3H Leucine (Amersham) and 20 μL of appropriate dilution of LRS enzyme, incubate in shaker at about 30° C. for 20 minutes. The reaction was started by adding 5 μL of 40 millimolar ATP (Sigma) and incubated on shaker at the same temperature further for 20 minutes. The reaction was quenched with 150 μL ice cold trichloroacetic acid (10%). The content of each well was transferred to 96 well GF/C plates (from Pall), and washed with 150 μL of trichloroacetic acid (5%) using vacuum manifold (from Pall). Plates were dried and read using Microbeta Wallac liquid scintillation counters after adding 100 μL of scintillation cocktail (Perkin Elmer's OptiPhase ‘SuperMix’) to each well. IC50 was calculated with respect to enzyme control after subtracting background (No enzyme control) using Graph Pad Prism software.

Assay [2] addresses T2, P. aeruginosa LRS (Pseudomonas aeruginosa, UniProt Q9HX33).
T2 construct: made in house
Described as above. It is filed as biochemical. Particulars: 3H leucine incorporation. How it is done:
as §1, §2, §3

Assay [3] relates to E. coli ATCC 25922. The assay is described as follows: Bacterial susceptibility testing (MIC, CLSI microdilution). To be noted: Escherichia coli, ATCC25922. It is filed as cell-based. How it is done: (§4) (Test Example 2) Method of Testing Susceptibility of Bacterial [MICs]
(§5) Minimum inhibitory concentration (MIC) were determined as recommended by the Clinical and Laboratory Standards Institute (CLSI) in 2010 (M100-520), in 2011 (M100-521), 2012 (M100-522) and in 2013 (M100-523) with minor modifications.
(§6) In short, bacterial cultures were streaked on Muller Hinton Agar plates and incubated at 35±2° C. for about 18 to 20 hours. Following day colony suspension was prepared in saline and adjusted to 0.5 McFarland using Densitometer. This culture was further diluted 100 fold in Muller Hinton Broth or M9 minimal media or pooled human urine and used for MIC determination. The test compounds were prepared in dimthylesulfoxide (DMSO) at concentration of 1 mg/mL, and diluted to 32 μg/mL in respective media. Further two fold serial dilution were prepared in 96 well microtiter plates. 50 μL of diluted cultures were added to all wells and incubated at 35±2° C. for about 16 to 20 hours.
Background: Broth dilution looks for growth in wells or tubes with falling amounts of substance.

The subject of assay [4] is K. pneumoniae ATCC 13883. The assay is described as above. Particulars: Klebsiella pneumoniae, ATCC13883. It is filed as cell-based. How it is done:
as §4, §5, §6

Assay [5] relates to P. aeruginosa. The description is as above. It is filed as cell-based. Particulars: Pseudomonas aeruginosa, strain not stated, read-out: MIC against P. aeruginosa. How it is done:
as §4, §5, §6

Assay [6] relates to P. aeruginosa PAO1. In words: In vivo efficacy in urinary tract infection (UTI) ascending model. The arrangement: species or system Mouse. To be noted: 60 mg/kg body weight twice daily for 3 days, 4th day of infection. How it is done: (Test Example 3a) In Vivo Efficacy in Urinary Tract Infection (UTI) Model Mouse P. aeruginosa UTI ascending model was used. All animals were infected with P. aeruginosa PAO1 by intra-urethral route. Randomization was done 18 hours post infection before starting treatment. Therapy was initiated 18 hours post infection. Animals were treated with 30 mg/kg and 60 mg/kg body weight of test compounds twice daily for 3 days. Animals were sacrificed and cfu loads in kidney and bladder were detected by serial dilution platting on drug free TSA plates on day 4.

Assay [7] has as its system P. aeruginosa PAO-1. In words: In vivo efficacy in P. aeruginosa PAO1 murine lung infection model. Particulars: subcutaneous 75 mg/kg twice daily. How it is done:
(Test Example 3c) In Vivo Efficacy in P. aeruginosa PAO1 Murine Lung Infection Model Overnight grown culture of P. aeruginosa PAO-1 on TSA agar was inoculated in Brain heart infusion broth (BHI, DIFCO) and grown in a shaker incubator with shaking at 110 rpm at 35±2° C. overnight. The culture was subcultured in 50 mL of BHI and incubated again at 110 rpm at 35±2° C. on a shaker incubator till the optical density of the culture reaches 0.5-0.7 units. For infection, animals were weighed, randomized and anesthetized by giving isofluorane. Under anesthesia the animals were infected with 50 μL of the inoculum prepared as above by intranasal route. The test compounds were administered at 75 mg/kg body weight by subcutaneous route after 1 hour and 6 hours post infection. Animals were euthanized, lungs were removed aseptically and homogenized in PBS (3 mL) and serial dilutions plated on TSA plates 24 hours post infection.

The subject of assay [8] is E. coli ATCC 25922. The assay is described as follows: MICs in Muller Hinton Broth and pooled human urine. Particulars: Escherichia coli, ATCC25922. It is filed as cell-based. How it is done: as §6
(Test Example 4) MICs in Human Urine Against E. coli and K. pneumonia
Many antibacterial compounds like fluroquinolones loose activity in human urine at acidic pH (acidic urine promotes rigorous bacterial growth). MICs were performed using CLSI guidelines (2011) against E. coli 25922 in Muller Hinton Broth (MHB) and pooled human urine.

Assay [9] concerns P. aeruginosa PAO1 (parent, MexAB del, MexAB over expression). In words: MICs against Pseudomonas efflux pump mutants. It is filed as cell-based. How it is done: as §6
(Test Example 5) MICs Against Pseudomonas Efflux Pump Mutants
Multidrug-resistant (MDR) P. aeruginosa isolated from nosocomial infections in intensive care units (ICUs) are often related to altered regulation of the specific efflux pumps and porins in P. aeruginosa strains. Tested compounds that show similar activity against efflux pump overproducers and lab strains can be predictive of activity in nosocomial patients infected with MDR strains. To identify such compounds we have determined MICs against P. aeruginosa PAO1 against Efflux deleted and overproducer strains.

[10] abbreviates: Muller Hinton Broth, read-out: E. coli ATCC 25922 MIC (μg/mL) MHB.
[11] abbreviates: pooled human urine pH 5.5, read-out: E. coli ATCC 25922 MIC (μg/mL) Urine pH 5.5.
Setting [12] is: PAO1, read-out: MIC (μg/mL) P. aeruginosa PAO1 MexAB del.
[13] abbreviates: PAO1, read-out: MIC (μg/mL) P. aeruginosa PAO1 MexAB over expression.
The mark [14] stands for this setting: PAO1, read-out: MIC (μg/mL) P. aeruginosa PAO1 Parent.

SMILES strings stand for the structures. Like-named read-outs stand apart in the source and are kept apart here.

A word on the IC50: it is the concentration at which inhibition is half-maximal. Low readings indicate greater potency in that assay, high ones weaker potency in that assay.

T1 sequence (P07813 whole entry): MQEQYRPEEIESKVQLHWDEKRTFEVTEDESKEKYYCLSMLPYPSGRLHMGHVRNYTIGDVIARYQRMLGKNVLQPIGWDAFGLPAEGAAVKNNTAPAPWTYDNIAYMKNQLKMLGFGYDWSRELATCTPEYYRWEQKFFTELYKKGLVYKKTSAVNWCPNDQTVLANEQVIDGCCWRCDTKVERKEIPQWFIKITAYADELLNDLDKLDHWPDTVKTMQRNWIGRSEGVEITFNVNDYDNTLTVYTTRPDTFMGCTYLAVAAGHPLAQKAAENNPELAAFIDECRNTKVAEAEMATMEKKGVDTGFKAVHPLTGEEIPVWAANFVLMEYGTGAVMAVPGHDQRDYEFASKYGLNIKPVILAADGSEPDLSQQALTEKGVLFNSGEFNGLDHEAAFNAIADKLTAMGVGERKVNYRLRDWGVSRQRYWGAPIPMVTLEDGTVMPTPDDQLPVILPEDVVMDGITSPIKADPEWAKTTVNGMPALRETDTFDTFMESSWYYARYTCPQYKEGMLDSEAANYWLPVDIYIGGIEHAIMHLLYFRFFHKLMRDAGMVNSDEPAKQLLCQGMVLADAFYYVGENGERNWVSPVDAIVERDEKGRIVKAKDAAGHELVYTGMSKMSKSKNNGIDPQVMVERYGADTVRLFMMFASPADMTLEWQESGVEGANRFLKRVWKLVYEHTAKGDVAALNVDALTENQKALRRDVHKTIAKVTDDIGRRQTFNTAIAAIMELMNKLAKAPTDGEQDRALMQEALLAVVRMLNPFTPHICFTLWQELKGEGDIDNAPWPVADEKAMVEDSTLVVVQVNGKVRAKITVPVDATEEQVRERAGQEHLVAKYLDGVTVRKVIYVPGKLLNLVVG
T2 sequence (Q9HX33 whole entry): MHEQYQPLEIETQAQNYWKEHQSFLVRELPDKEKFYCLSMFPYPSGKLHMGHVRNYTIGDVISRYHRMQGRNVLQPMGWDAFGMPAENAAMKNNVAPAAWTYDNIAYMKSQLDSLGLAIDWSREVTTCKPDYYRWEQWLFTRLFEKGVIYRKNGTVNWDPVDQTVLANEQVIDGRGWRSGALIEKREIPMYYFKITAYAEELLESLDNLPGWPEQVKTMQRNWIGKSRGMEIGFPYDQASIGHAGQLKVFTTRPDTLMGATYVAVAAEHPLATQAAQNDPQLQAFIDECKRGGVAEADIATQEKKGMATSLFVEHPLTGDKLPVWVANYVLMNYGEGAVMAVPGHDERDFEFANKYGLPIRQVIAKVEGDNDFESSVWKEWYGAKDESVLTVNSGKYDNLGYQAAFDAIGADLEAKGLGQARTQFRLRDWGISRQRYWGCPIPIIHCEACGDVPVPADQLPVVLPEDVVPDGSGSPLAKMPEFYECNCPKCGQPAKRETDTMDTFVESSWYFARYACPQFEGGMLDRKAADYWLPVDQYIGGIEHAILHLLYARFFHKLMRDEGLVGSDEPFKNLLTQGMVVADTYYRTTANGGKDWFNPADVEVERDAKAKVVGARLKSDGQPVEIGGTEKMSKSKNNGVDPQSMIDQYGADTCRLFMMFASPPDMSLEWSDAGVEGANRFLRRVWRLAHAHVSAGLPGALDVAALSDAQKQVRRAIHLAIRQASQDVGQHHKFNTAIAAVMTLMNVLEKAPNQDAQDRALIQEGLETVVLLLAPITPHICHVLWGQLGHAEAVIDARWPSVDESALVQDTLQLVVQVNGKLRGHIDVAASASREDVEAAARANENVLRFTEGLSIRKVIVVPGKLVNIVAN

For `Cl.NC[C@H]1OB(O)c2ccc3c(c21)OCO3` (single isomer, unassigned) [Compound 6, hydrochloride], the IC50 in assay [1] and in assay [2] was below 0.12 µM throughout.
Turning to `Cl.NC[C@H]1OB(O)c2c1ccc1c2OCO1` (single isomer, unassigned) [Compound 10, hydrochloride], the concentration for half-maximal inhibition (IC50) in assay [1] turned out to be 0.38 µM; in assay [2], 0.62 µM.
On to `Cl.NC[C@H]1OB(O)c2c1ccc1c2OCO1` (single isomer, unassigned) [Compound 10], for which the MIC was 2 µg/mL in assay [3]; 0.5 µg/mL in [4]; 1 µg/mL in assay [5]; 2 µg/mL in assay [8] (setting [10]); 4 µg/mL in assay [8] (setting [11]); 1 µg/mL in assay [9] (setting [12]). Moreover, the MIC in assay [9] (setting [13]) and in assay [9] (setting [14]) was 1 µg/mL each time. The “log reduction from the untreated control in bladder counts” value in [6] (bladder) is 3.83 log. The “log reduction from the untreated control in kidney counts” value in [6] (kidney) is given as 4.18 log. Besides, the “log reduction in cfu from 24 hours untreated control” value in assay [7] stood at 3.53 log. Moreover, the “log reduction in cfu's from baseline” value in assay [7] is given as 2.07 log.
As for `Cl.NCC1OB(O)c2cc3c(cc21)OCO3` (stereo not shown) [Compound 1, 3-(aminomethyl)[1,3]dioxolo[4,5-f][2,1]benzoxaborol-1(3H)-ol hydrochloride], the IC50 is 1.4 µM in assay [1] and above 10 µM in [2]. The MIC in assay [3] and in [4] was 4 µg/mL in each case.
Take `Cl.NCC1OB(O)c2cc3c(cc21)OCCO3` (stereo not shown) [Compound 2, 3-(aminomethyl)-6,7-dihydro[1,2]oxaborolo[3,4-g][1,4]benzodioxin-1(3H)-ol hydrochloride]: the IC50 is 3.35 µM in assay [1] and above 10 µM in assay [2]. Further, the results for the MIC in assay [3] and in assay [4] were 4 µg/mL and 8 µg/mL, respectively.
On the same counts, the results for `Cl.NCC1OB(O)c2c1ccc1c2CCC1` (stereo not shown) [Compound 3, 3-(aminomethyl)-3,6,7,8-tetrahydro-1H-indeno[4,5-c][1,2]oxaborol-1-ol hydrochloride] are 2.5 µM, 2.2 µM, 1 µg/mL and 1 µg/mL.
The like results for `Cl.NCC1OB(O)c2c1ccc1c2CCCC1` (stereo not shown) [Compound 4, 3-(Aminomethyl)-6,7,8,9-tetrahydronaphtho[1,2-c][1,2]oxaborol-1(3H)-ol hydrochloride] were, in that order, 4.5 µM, 9.5 µM, 8 µg/mL and 16 µg/mL.
The like results for `Cl.NCC1OB(O)c2ccc3c(c21)OCCO3` (stereo not shown) [Compound 7, 9-(aminomethyl)-2,3-dihydro[1,2]oxaborolo[4,3-f][1,4]benzodioxin-7(9H)-ol hydrochloride] were, in that order, 0.8 µM, 0.6 µM, 8 µg/mL and 16 µg/mL.
In the case of `Cl.NCC1OB(O)c2c1ccc1c2OCCO1` (stereo not shown) [Compound 8, 3-(aminomethyl)-7,8-dihydro[1,2]oxaborolo[3,4-f][1,4]benzodioxin-1(3H)-ol hydrochloride], the IC50 is 2.1 µM in [1] and 3.2 µM in assay [2]. Further, the MIC in assay [3] was found to be 4 µg/mL; in assay [4], 4 µg/mL; in assay [5], 4 µg/mL; in assay [8] (setting [10]), 8 µg/mL; in [8] (setting [11]), 16 µg/mL; in assay [9] (setting [12]) it was 4 µg/mL. For the same compound, the MIC was determined as 4 µg/mL in assay [9] (setting [13]) and 2 µg/mL in assay [9] (setting [14]).
As for `Cl.NCC1OB(O)c2c1ccc1c2OCO1` (stereo not shown) [Compound 9, 3-(aminomethyl)[1,3]dioxolo[4,5-g][2,1]benzoxaborol-1(3H)-ol; hydrochloride], the values for the IC50 in assay [1] and in assay [2] were 1.7 µM and 2.7 µM, respectively. Moreover, the MIC in [3] was determined as 2 µg/mL; in [4] it was 2 µg/mL; in assay [5] it was 2 µg/mL; in [8] (setting [10]) it was 8 µg/mL; in assay [8] (setting [11]), 8 µg/mL; in assay [9] (setting [12]) it was 2 µg/mL. Besides, the figures for the MIC in [9] (setting [13]) and in [9] (setting [14]) were 4 µg/mL and 2 µg/mL, respectively.
On to `Cl.NCC1OB(O)c2cc3c(cc21)CCO3` (stereo not shown) [Compound 11, 3-(aminomethyl)-5,6-dihydrofuro[3,2-f][2,1]benzoxaborol-1(3H)-ol hydrochloride], for which the IC50 in assay [1] is 2.9 µM; in assay [2], above 10 µM. In addition, the MIC in assay [3] and in assay [4] was 4 µg/mL each time.
In the case of `Cl.NCC1OB(O)c2cc3c(cc21)OCC3` (stereo not shown) [Compound 12, 3-(aminomethyl)-6,7-dihydrofuro[2,3-f][2,1]benzoxaborol-1(3H)-ol hydrochloride], the IC50 in [1] is 2.8 µM; in [2], above 10 µM. For the same compound, the MIC was found to be 8 µg/mL in assay [3] and 16 µg/mL in assay [4].

The values above are taken from patent US9944660B2, “Tricyclic benzoxaboroles as antibacterial agents” (Daiichi Sankyo Company, Limited, priority 2014, dated 2018).
